Data set [1] deals with cellular uptake of 1 in HeLa Kyoto cells. Nature of the data set: cells. Format: cell-based. The note with it: HeLa, removal, tinc 0.5 h with 1 (10 µM); for IC50: read-out: IC50, inhibition of cellular uptake of 1. How it is done:
(§1) With COCs 1 and 2 as cell-penetrating reporters, a fully automated, fluorescent microscopy image-based high-content high-throughput (HCHT)[19] inhibitor screening assay was developed. HeLa cells in multiwell plates are incubated with a reporter at constant and inhibitors at varying concentrations and incubation times. Hindered reporter uptake then causes decrease of fluorescence inside of cells (Fig. 3a). Automated data analysis[19] was established to extract average fluorescence intensity per cell and, at the same time, cell viability from propidium iodide negative nuclei count (Fig. 3 and S3–S6 ^†). Standard assay conditions consisted of pre-incubation of HeLa cells with inhibitors for different periods of time, followed by the removal of inhibitors and the addition of reporters, thus excluding possible interactions between the two in the extracellular environment. In alternative co-incubation conditions, inhibitors were not removed before the addition of reporters to allow for eventual interactions between the two.
4. High-Content High-Throughput (HCHT) Inhibitor Screening
4.1. General Procedure for HCHT Inhibitor Screening
4.1.1. Pre-Incubation of Inhibitors
HeLa Kyoto cells were seeded at 1.2 ×10^4 cells/well in FluoroBrite DMEM + 10% FBS on μ-Plate 96-well Black ibiTreat sterile and kept at 37 °C with 5% CO2 overnight. Next day, serial dilutions of the inhibitors in PBS (10x final concentration), reporter 1 or 2 (100 μM in PBS) and a solution of Hoechst 33342 (100 μg/mL) and PI (10 μg/mL) in PBS were prepared freshly in a 96-well V-bottom plate. Then, cells were washed with PBS ([…]) and the media was exchanged to FluoroBrite DMEM (4 x 150 μL/well) using a plate washer (Biotek EL406®), keeping always a final volume of 135 μL/well. The inhibitor solutions from the V-bottom plate were added to the cells (15 μL/well, 10x final concentration in PBS) using an electronic multichannel pipettes to reach a final volume of 150 μL/well. Cells were incubated for the time of interest (for details of each inhibitors, see Section 4.3 and 4.4) at 37 °C with 5%
CO2. After this, cells were washed again using the plate washer and reporter solution 1 or 2 from the V-bottom plate was added (15 μL/well) using an electronic multichannel pipettes to reach a final volume of 150 μL/well and a final concentration of 10 μM, except for the control wells, where only PBS was added (15 μL/well). After 30 min of incubation at 37 °C with 5% CO2, the plate was washed again using the plate washer. Then, the solution of Hoechst 33342 and PI from V-bottom plate was added (15 μL/well) using an electronic multichannel pipettes to reach a final volume of 150 μL/well. After 15 min of incubation at 37 °C with 5% CO2, the plate was washed one last time and the cells were kept in clean FluoroBrite DMEM. During imaging, samples were kept at 37 °C with 5% CO2 in the microscope.
4.1.2. Co-Incubation of Inhibitors and Reporters […]
serial dilutions of the inhibitors in PBS (10x final concentration), reporter 1 or 2 (110 μM in […]
freshly in a 96-well V-bottom plate. Then, cells were washed with the plate washer. The inhibitor solutions from the V-bottom plate were added to the cells (15 μL/well, 10x final concentration in PBS) using an electronic multichannel pipettes to reach a final volume of 150 μL/well. Cells were incubated for the time of interest (for details of each inhibitors, see Section 4.3 and 4.4) at 37 °C with 5% CO2. Reporter solution 1 or 2 from V-bottom plate was then added (15 μL/well) using an electronic multichannel pipettes to reach a final volume of 165 μL/well and a final concentration of 10 μM 30 min before the next washing process, except for the control wells, where only PBS was added (15 μL/well). The plate was washed again using the plate washer. The solution of Hoechst 33342 and PI from V-bottom plate was added (15 μL/well) using an electronic multichannel pipettes to reach a final volume of 150 μL/well. After […]

In data set [2] the test system is HeLa Kyoto cells. Nature of the data set: Relative cell viability in HCHT screening (propidium iodide negative nuclei count). The format is cell-based. Conditions: HeLa, removal, tinc 0.5 h with 1 (10 µM), read-out: GI50, concentration causing 50% cell growth inhibition. How it is done: as §1
To be able to extract the fluorescent integrated intensity information (sum of the intensities of all the pixels included in the mask) from the green channel for live cell only, the image analysis pipeline contains several steps of cell filtering and selection:
1) Firstly, PI is used to stain any remaining nuclei of dead cell. In the analysis pipeline, all the “dead” nuclei are detected based on their fluorescent intensity in the PI channel (Figure […]
Fig. S4 (A) PI positive nuclei mask (fluorescent intensity threshold of 1000). (B) Overlap image of dead nuclei mask and original all cell body mask. (C) Resulting cell mask after removing any cell marked by a dead nucleus, new mask is called “Live Cell”. Scale bar: 50 μm.
2) Elimination of non-full cells from the border of the image is performed, to avoid inaccurate fluorescent integrated intensity quantification (fluorescent integrated intensity = sum of intensity of all the pixel of the object) (Figure S5).
(1 picture or pasted object on this page, not shown here)
4.3. HCHT Inhibitor Screening with ETP as Reporter […]
Relative cell viability (RV) for each condition in the presence of inhibitors were calculated using the count value of living cells by dividing the count value of living cells with addition of reporter 1, Hoechst 33342 and PI, for each set of experiments. Duplicates were performed for each condition. The resulting dependence of the relative cell viability (RVrel) to the concentration of inhibitors (cinhibitor) was plotted and fitted with Equation (S2) to retrieve the concentration causing 50% cell growth inhibition (GI50) value and the Hill coefficient (n).
RVrel = 1 / (1 + (GI50 / cinhibitor)n) (S2)
Note: Reporter 1 were not toxic for 1 h at 10 μM.S2 Also in this study, the count value of living cells with addition of reporter 1, Hoechst 33342 and PI is always similar to that of living cells with only addition of Hoechst 33342 and PI.
Relative cell viability (RV) for each condition with inhibitors were calculated using the count value of living cells by dividing the count value of living cells with addition of reporter 2, Hoechst 33342 and PI, for each set of experiments. Duplicates were performed for each condition. The resulting dependence of the relative cell viability (RVrel) to the concentration of inhibitors (cinhibitor) was plotted and fitted with Equation (S2) to retrieve the concentration causing 50% cell growth inhibition (GI50) value and the Hill coefficient (n).
Note: Reporter 2 were not toxic for 24 h at 10 μM.S3 Also in this study, the count value of living cells with addition of reporter 2, Hoechst 33342 and PI is always similar to that of living cells with only addition of Hoechst 33342 and PI.
4.4.1. Screening with Disulfides as Inhibitors
4.4.1.1. Screening with ETP as Inhibitors
Fig. S35 Automatically analyzed HCHT data showing fluorescence intensity (filled symbols) and relative viability (empty symbols) of HeLa cells after pre-incubation with 3 for 1 h (blue […]

Data set [3] concerns HeLa Kyoto cells. Conditions: cited from earlier work.
For a further data set, the system named is thiol-mediated uptake. Nature of the data set: Inhibition of thiol-mediated uptake, reporter and protocol not stated. The note with it: preliminary results; note 34. Format: cell-based.

Data on 4 molecules can be found in paper PMC8179002, “Inhibitors of thiol-mediated uptake” (Chemical Science, 2020).

Like-named read-outs stand apart in the source and are kept apart here.

One may read the IC50 as the concentration at which inhibition is half-maximal.

Take `[O-][S+]1CC(O)C(O)CS1` (stereo not drawn) [compound 22]: the “MIC, inhibition of cellular uptake of 1” value in data set [1] (tpre 1 h with inhibitor) is 800 µM; in data set [1] (tpre 2 h with inhibitor), 600 µM; in data set [1] (tpre 4 h with inhibitor), 300 µM. Further, the figures for the IC50 in data set [1] (tpre 1 h with inhibitor), in data set [1] (tpre 2 h with inhibitor) and in data set [1] (tpre 4 h with inhibitor) were more than 5 mM, more than 2 mM and more than 2 mM, respectively. Moreover, the GI50 in the data set with HeLa Kyoto cells [2] (tpre 1 h with inhibitor) is 4.4 ± 0.2 mM; in the data set with HeLa Kyoto cells [2] (tpre 2 h with inhibitor), more than 5 mM; in the data set with HeLa Kyoto cells [2] (tpre 4 h with inhibitor) it was more than 2 mM.

As to `CCN1C(=O)C2SSC1C(=O)N2CC(=O)NCCNC(=S)Nc1ccc(-c2c3ccc(=O)cc-3oc3cc(O)ccc23)c(C(=O)O)c1` (stereo not drawn) [compound 1], the Toxicity of reporter entry in the data set with HeLa Kyoto cells [3] (1 h at 10 μM, ref S2) was “not toxic”.

For `O=C(NCCNC(=S)Nc1ccc(-c2c3ccc(=O)cc-3oc3cc(O)ccc23)c(C(=O)O)c1)c1ccc2c(c1)SSSSS2` [compound 2], the Toxicity of reporter result in the data set on HeLa Kyoto cells [3] (24 h at 10 μM, ref S3) was “not toxic”.

`O=c1c2ccccc2[se]n1-c1ccccc1` [ebselen]: the “Inhibition of thiol-mediated uptake, in words” value in the data set with thiol-mediated uptake was “inhibits”.
